Assay results published in patent US20150272939A1, “Identification of Small Molecule Inhibitors of Jumonji AT-Rich Interactive Domain 1A (JARID1A) and 1B (JARID1B) Histone Demethylase” (Yale University, priority 2012, published 2015).
Structures can show the parent of a compound that is named as a salt. Where two headings read alike, the source gives them in different places.

How the values were obtained:
[1] = AlphaScreen counterscreen against bio-H3K4me2 peptide in the absence of enzyme (artifact signal); settings: for Artifact Signal (percent): effect of the compound when incubated with bio-H3K4me2 peptide (counterscreen, no enzyme); for Artifact signal: effect of the compound when it is incubated with bio-H3K4me2 peptide: counterscreen, no enzyme;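 on all read-outs here: counterscreen run without enzyme against bio-H3K4me2 peptide to remove false positive hits from the JARID1 demethylase AlphaScreen screen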
JARID1B = biological target: T1, JARID1B (Homo sapiens, UniProt Q9UGL1); test: FLAG-JARID1B histone demethylase assay with AlphaScreen detection (HTS and dose response); assay type: biochemical; settings: for Assay − Artifact Signal (percent): assay signal minus artifact signal; for inhibition at 20 µM: read-out: Inhibitory effect (percent); for Assay Signal (percent) / Validation result of HTS active: effect of the compound in the JARID1B AlphaScreen demethylase assay: validation of HTS actives; for Assay Signal (percent): effect of compound in JARID1B AlphaScreen assay; for Validation result of HTS active: effect of the compound in the JARID1B AlphaScreen demethylase assay: total signal before subtraction of artifact signal;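 on Assay Signal (percent): compound tested at 20 µM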;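 on Assay − Artifact Signal (percent): compound tested at 20 µM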;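 on all read-outs here: FLAG-tagged JARID1B at 4 nM acting on a biotinylated H3K4me3 peptide, demethylation read by AlphaScreen luminescence, with hits checked against bio-H3K4me2 without enzyme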
T1 construct: The FLAG tagged full length JARID1B enzyme was expressed in Sf21 insect cells using FLAG-JARID1B baculoviruses; FLAG (N); made in house; host or cells: Sf21 insect cells (baculovirus)
T1 sequence (Q9UGL1 whole entry): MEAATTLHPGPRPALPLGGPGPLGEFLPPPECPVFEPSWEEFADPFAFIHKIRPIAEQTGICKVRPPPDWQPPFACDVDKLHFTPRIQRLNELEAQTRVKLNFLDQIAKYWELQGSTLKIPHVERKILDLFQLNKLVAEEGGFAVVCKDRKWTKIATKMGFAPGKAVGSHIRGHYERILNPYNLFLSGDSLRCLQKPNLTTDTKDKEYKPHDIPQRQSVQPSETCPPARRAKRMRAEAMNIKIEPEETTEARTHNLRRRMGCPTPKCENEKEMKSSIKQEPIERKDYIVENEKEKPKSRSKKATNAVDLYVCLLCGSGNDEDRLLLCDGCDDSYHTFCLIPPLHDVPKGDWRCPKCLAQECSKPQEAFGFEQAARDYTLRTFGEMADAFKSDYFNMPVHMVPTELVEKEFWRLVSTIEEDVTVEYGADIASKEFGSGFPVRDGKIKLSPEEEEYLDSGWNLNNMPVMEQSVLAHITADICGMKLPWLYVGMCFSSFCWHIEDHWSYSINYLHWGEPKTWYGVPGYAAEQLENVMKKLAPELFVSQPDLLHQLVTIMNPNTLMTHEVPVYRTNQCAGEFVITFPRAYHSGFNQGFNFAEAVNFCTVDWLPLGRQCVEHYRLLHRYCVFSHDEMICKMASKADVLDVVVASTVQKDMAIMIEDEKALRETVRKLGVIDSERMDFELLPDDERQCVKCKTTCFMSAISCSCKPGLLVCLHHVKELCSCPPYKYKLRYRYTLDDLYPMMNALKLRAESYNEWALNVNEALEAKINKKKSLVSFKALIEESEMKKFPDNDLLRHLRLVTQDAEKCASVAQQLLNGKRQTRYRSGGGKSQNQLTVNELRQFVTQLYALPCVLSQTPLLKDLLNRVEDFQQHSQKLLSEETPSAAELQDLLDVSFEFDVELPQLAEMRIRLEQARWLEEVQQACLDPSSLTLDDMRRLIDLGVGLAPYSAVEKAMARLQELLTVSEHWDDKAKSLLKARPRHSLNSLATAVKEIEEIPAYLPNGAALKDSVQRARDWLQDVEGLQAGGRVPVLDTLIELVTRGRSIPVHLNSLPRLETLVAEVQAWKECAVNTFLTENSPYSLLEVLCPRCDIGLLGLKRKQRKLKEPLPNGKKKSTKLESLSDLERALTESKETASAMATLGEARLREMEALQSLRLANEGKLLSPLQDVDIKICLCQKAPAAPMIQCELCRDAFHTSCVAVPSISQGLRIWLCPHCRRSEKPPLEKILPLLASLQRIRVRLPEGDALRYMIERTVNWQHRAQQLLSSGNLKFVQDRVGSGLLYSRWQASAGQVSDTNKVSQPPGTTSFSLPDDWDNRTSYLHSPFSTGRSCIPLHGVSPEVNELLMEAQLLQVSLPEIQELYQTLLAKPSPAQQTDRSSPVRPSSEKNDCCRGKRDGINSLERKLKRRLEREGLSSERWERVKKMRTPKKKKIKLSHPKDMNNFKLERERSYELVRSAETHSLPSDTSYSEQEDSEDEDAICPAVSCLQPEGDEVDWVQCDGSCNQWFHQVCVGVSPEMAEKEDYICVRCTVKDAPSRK

[2] = high-throughput screen, compound 20 μM, standard demethylase conditions (10 μM α-KG, 50 μM Fe (II))
[3] = high-throughput screen, compound 20 μM, IDs marked *: additional hits under reaction condition with 1 mM α-KG

Row | SMILES | Artifact Signal (percent) [1] [%] | Assay − Artifact Signal (percent) (JARID1B) [%] | inhibition at 20 µM (JARID1B; [2]) [%] | Assay Signal (percent) (JARID1B) [%] | inhibition at 20 µM (JARID1B; [3]) [%] | Artifact signal: effect of the compound when it is incubated with bio-H3K4me2 peptide [1] | Validation result of HTS active: effect of the compound in the JARID1B AlphaScreen demethylase assay (JARID1B) | Inhibitory effect (percent) (JARID1B; [2]) [%]
1 | Cc1cccc(NC(c2ccccn2)c2ccc3cccnc3c2O)n1 (stereo not shown) [YU172178] | 37.93 | 8.53 | 72.3 | 46.45 |  |  |  | 
2 | Oc1cc2c(cc1O)C1c3ccc(O)c(O)c3OCC1(O)C2 (stereo not shown) [YU155005, HAEMATOXYLIN, reference compound] | 34.32 | 64.59 | 101 | 98.90 |  |  |  | 
3 | O=C(NCc1ccccc1)c1ccc(N2CCCC2)c([N+](=O)[O-])c1 [YU153074] | 5.15 | 11.37 | 102 | 16.52 |  |  |  | 
4 | NC(CO)C(=O)NNCc1ccc(O)c(O)c1O (stereo not shown) [YU033702, BENSERAZIDE HYDROCHLORIDE, reference compound] | 21.46 | 52.50 | 70.6 | 73.96 |  |  |  | 
5 | CC(C)NNC(=O)c1ccncc1 [YU034066, IPRONIAZID SULFATE, reference compound] | 3.41 | 69.09 | 75.9 | 72.51 |  |  |  | 
6 | N#CC(C#N)=Cc1cc(O)c(O)c(O)c1 [YU154832, TYRPHOSTIN 25, reference compound] | 5.21 | 17.87 | 53.7 | 23.08 |  |  |  | 
7 | O=C1c2c(O)cccc2Cc2cccc(O)c21 [YU033694, ANTHRALIN, reference compound] | 9.35 | 13.30 |  | 22.65 | 51.7 |  |  | 
8 | O=C(OC[C@H]1O[C@@H](OC(=O)c2cc(O)c(O)c(OC(=O)c3cc(O)c(O)c(O)c3)c2)[C@H](OC(=O)c2cc(O)c(O)c(OC(=O)c3cc(O)c(O)c(O)c3)c2)[C@@H](OC(=O)c2cc(O)c(O)c(OC(=O)c3cc(O)c(O)c(O)c3)c2)[C@@H]1OC(=O)c1cc(O)c(O)c(OC(=O)c2cc(O)c(O)c(O)c2)c1)c1cc(O)c(O)c(OC(=O)c2cc(O)c(O)c(O)c2)c1 (stereo in doubt) [YU034398, TANNIC ACID, reference compound] |  |  | 105 |  |  | 99.54 | 104.83 | 
9 | N#Cc1c(O)nc(S)nc1-c1ccccc1 [YU145521] | −2.92 | 9.91 | 68.2 | 6.99 |  |  |  | 
10 | O=c1c(O)c(-c2ccc(O)c(O)c2)oc2cc(O)cc(O)c12 [YU034090, QUERCETIN, reference compound] |  |  |  |  |  | 58.14 | 62.82 | 80.17
11 | C#CCCCCCCCCCCCC(O)CC(O)COC(C)=O (stereo not shown) [YU155369, AVOCADYNE ACETATE, reference compound] | −0.21 | 45.03 | 45.1 | 44.82 |  |  |  | 
12 | NS(=O)(=O)c1cccc(NC(=O)c2cccnc2Oc2ccccc2)c1 [YU016812] |  |  | 34.2 |  |  | 13.27 | 10.22 | 
13 | N=C(NCCCCCCNC(=N)NC(=N)Nc1ccc(Cl)cc1)NC(=N)Nc1ccc(Cl)cc1 [YU033734, CHLORHEXIDINE, reference compound] |  |  | 41 |  |  | 1.97 | −1.12 | 
14 | N#CC(=Cc1ccc(N2CCCCC2)o1)c1ccc([N+](=O)[O-])cc1 (single isomer, unassigned) [YU152765] | 2.40 | 9.56 | 42 | 11.96 |  |  |  | 
15 | O=C(Nc1ccc(N2Cc3ccccc3OC(c3ccccc3)C2)c(C(=O)O)c1)c1ccccc1F (stereo not shown) [YU208213] |  |  |  |  |  | 32.32 | 37.72 | 
16 | CN1CCc2cccc3c2C1Cc1ccc(O)c(O)c1-3 (stereo not shown) [YU033696, APOMORPHINE HYDROCHLORIDE, reference compound] | 8.29 | 58.49 | 89.4 | 66.78 |  |  |  | 
17 | COC1=CC(=O)C(O)=CC1=CC=Cc1ccccc1 (single isomer, unassigned) [YU155007, OBTUSAQUINONE, reference compound] | 7.90 | 43.75 | 48.7 | 51.64 |  |  |  | 
18 | COc1ccc(-c2coc3cc(O)ccc3c2=O)c(O)c1O [YU155016, KOPARIN, reference compound] | 14.33 | 13.76 |  | 28.09 | 42.3 |  |  | 
19 | CN1C(=O)c2ccc(NC(=O)c3ccc4c(c3)OCO4)cc2C1=O [YU152920] |  |  | 96.7 |  |  | −2.69 | 0.53 | 
20 | Cc1ccc([N+](=O)[O-])cc1N(CC(=O)Nc1ccc(Cl)c(C(F)(F)F)c1)S(C)(=O)=O [YU121632] |  |  | 59.2 |  |  | −1.84 | 2.95 | 
21 | O=c1cc(-c2cc(O)c(O)c(O)c2)oc2cc(O)cc(O)c12 [YU155308, HIERACIN, reference compound] |  |  | 40.7 |  |  | 92.13 | 34.84 | 
22 | CCN(CC)C(=S)SSC(=S)N(CC)CC [YU035331, reference compound] | −3.39 | 40.15 |  | 36.77 | 40.5 |  |  | 
23 | Oc1cc(O)c2c(c1)O[C@H](c1ccc(O)c(O)c1)[C@@H](O)C2 [YU033631, CIANIDANOL, reference compound] | 4.84 | 26.12 |  | 30.96 | 41.5 |  |  | 
24 | COc1cccc(O)c1O [YU155465, 3-METHOXYCATECHOL, reference compound] | 7.97 | 48.87 | 56.5 | 56.84 |  |  |  | 
25 | COc1cc(C=C[N+](=O)[O-])ccc1OCc1cccc(C(=O)O)c1 (single isomer, unassigned) [YU153545] | 91.35 | 8.98 | 101 | 100.32 |  |  |  | 
26 | O=C(NCc1ccccn1)c1ccc(NC(=O)c2ccco2)cc1 [YU152560] |  |  | 41.5 |  |  | −6.86 | −1.53 | 
